Reference: patent US6482850B2, “Hydrolysis-promoting hydrophobic taxane derivatives” (priority 1995, dated 2002)
Where two headings read alike, the source gives them in different places.

Columns and labels:
[1] = test system: A-549 human lung carcinoma; test: In vitro sensitivity, sulforhodamine B cytotoxicity assay, A-549 (Table 2); assay type: cell-based; conditions: 72-hour incubation; averaged from two separate experiments
Description: Briefly, 96-well microtiter plates were inoculated (100 μL/well) with 5×10^3 (A549) or 7.5×10^3 (OVCAR-3) cells/well, in RPMI-1640 supplemented with 10% FBS (growth media). The plates were incubated for 24 hr at 37° C., 100% humidity and 5% CO2. At 24 hours, growth media (100 μL) was added to designated “time zero” plates. Similarly, serial dilutions of drug or vehicle (in media) were added (100 μL aliquots) to the test and vehicle control wells at twice the predetermined highest concentration. […] Cells (including time zero plates) were then fixed with 50 μL of 50% trichloroacetic acid (TCA) (w:v) for adherent cells or 80% TCA for suspended cells, and plates refrigerated at 4° C. for 1 hr. […] The plates were then air-dried for 24 hr.

[2] = test system: MCF-7 human breast carcinoma; test: In vitro sensitivity, sulforhodamine B cytotoxicity assay, MCF-7 (Table 2); assay type: cell-based; conditions: 72-hour incubation; averaged from two separate experiments
[3] = test system: MCF-7/ADR (adriamycin-resistant); test: In vitro sensitivity, sulforhodamine B cytotoxicity assay, MCF-7/ADR (Table 2); assay type: cell-based, human; conditions: 72-hour incubation; averaged from two separate experiments
[4] = test system: HT-29 human colon carcinoma cells; test: In vitro sensitivity, sulforhodamine B cytotoxicity assay, HT-29 (Table 2); assay type: cell-based; conditions: 72-hour incubation; averaged from two separate experiments
[5] = test system: CDF1 female mice; test: Acute toxicity of liposomal paclitaxel or paclitaxel derivative given intraperitoneally; conditions: i.p.; for number of mice that died within the first 14 days post-injection/total: liposomes
Description: Moreover, liposomes containing either paclitaxel or a 2′-(2-bromo) hydrophobic paclitaxel derivative (containing either a six-carbon (C-6), C-8, C-12, C-14 or C-16 acyl chain at the 2′ position) were administered, intraperitoneally in 5 doses, to SCID (severe combined inimunodeficiency) mice bearing a human ovarian cancer (OvCar 3), at a dose of 12.5 mg paclitaxel per kg or a dose of 50 mg paclitaxel derivative per kg.
CDF1 female mice, 5 or 10 mice per group, were intraperitoneally administered either paclitaxel-, 2′-C6-paclitaxel derivative-, or 2′-C16-paclitaxel derivative-containing liposomes, in a single dose, or 5 doses, of either 12.5, 25, 50, 100, 200, 300. 400 or 500 mg of paclitaxel or paclitaxel derivative per kg of mouse body weight.

[6] = test system: CDF1 mice; test: In vivo toxicity, i.p. x 5, non-tumor bearing mice; conditions: 30 days observation
Description: (§1) A separate group (n=5) was injected with concentrations of Cremophor® EL and ethanol (in PBS) equivalent to the highest concentration of the test treatment. Mortality was recorded daily and body weights taken at least twice weekly for an observation period of 30 days.

[7] = test system: CDF1 mice; test: In vivo toxicity, i.v. x 5, non-tumor bearing mice; conditions: 30 days observation
Description: as §1

[8] = test system: OVCAR-3 human ovarian cancer; test: i.p. OVCAR-3 tumor, i.v. treatment, survival (FIG. 6); assay type: in vivo, mice
Description: Mice were observed daily for mortality and % ILS was calculated as described above.

[9] = test system: OVCAR-3 human ovarian cancer; test: s.c. OVCAR-3 tumor, i.v. treatment, tumor volume (FIG. 7); assay type: in vivo, mice
Description: OVCAR-3 human ovarian cancer.
The tumor volume (mm^3) from tumor measurement was calculated: (Length * (Width/2)^2 * π). Mice were sacrificed when the average tumor volume of the group reached 1500 mm^3.

[10] = Description: The 20 mg/mL formulation was further diluted to 6 mg/mL in 5% dextrose. […] At 0h, 24h, 1, 2, 3, 4, and 5 weeks samples were chromatographically analyzed by diluting the drugs to 1 mg/mL with 5% dextrose and then mixing 1:1 with acetonitrile. The chromatographic system consisted of a Shimadzu LC100 system with a UV detector. The column used was an Inertsil-ODS2, 150 ×4.6 mm (5 micron particle size) from Keystone Scientific (Bellefonte, Pa.). 20 μL of each sample was injected and read at 227 nm at ambient temperature. […] The constant flow rate was 1 mL/min.
[11] = test system: A549 human NSCLC; test: i.p. A549 tumor, i.p. treatment, survival; conditions: for % ILS / LTS/n / MST Days + SEM / Median survival time: treatment days 1, 3, 5, 7 and 9 i.p.
Description: Note that long-term survivors (mice that survived through day 300 after cell inoculation) were not included in mean, median, or % ILS calculations.
SCID mice (6/group) were injected with 5×10^6 A549 human NSCLC cells i.p. (day 0).

[12] = test system: OVCAR-3 human ovarian cancer; test: i.p. OVCAR-3 tumor, i.p. treatment, survival; conditions: for % ILS / LTS/n (mice that survived to 300 days) / MST Days ± SEM (n) / Median survival time: treated days 20, 22, 24, 26 and 28 i.p.; for MST Days ± SEM (n) / Median survival time: long-term survivors not included
Description: C.B-17 SCID female mice were injected i.p. with 5×10^6 OVCAR-3 human ovarian cancer cells (day 0). […] Note that long-term survivors (mice that survived through day 300 after cell inoculation) were not included in mean, median, or % ILS calculations.

## CCCCCCCCCCCCCC[C@@H](Br)C(=O)O[C@@H](C(=O)O[C@H]1C[C@@]2(O)[C@@H](OC(=O)c3ccccc3)[C@@H]3[C@]4(OC(C)=O)CO[C@@H]4C[C@H](O)[C@@]3(C)C(=O)[C@H](OC(C)=O)C(=C1C)C2(C)C)[C@@H](NC(=O)c1ccccc1)c1ccccc1 [BrC16HT, 2′-(R)-[2-bromohexadecanoyl] paclitaxel]
[1]
  GI50: 127 nM
[2]
  GI50: 71 nM
[3]
  GI50: > 10000 nM
[4]
  GI50: 59.5 nM
[5]; CDF1 mice
  relative acute toxicity of the liposomes: less toxic than were the 2-bromo-C6 paclitaxel derivative-containing liposomes
[5]; single dose 300 mg/kg
  number of mice that died within the first 14 days post-injection/total: 1/5
[5]; single dose 400 mg/kg
  number of mice that died within the first 14 days post-injection/total: 1/5
[5]; single dose 500 mg/kg
  number of mice that died within the first 14 days post-injection/total: 0/5
[6]; i.p. days 1 through 5, 12.5 mg/kg
  Number of Mice surviving/Total: 10/10
[6]; i.p. days 1 through 5, 25 mg/kg
  Number of Mice surviving/Total: 19/19
[6]; i.p. days 1 through 5, 37.5 mg/kg
  Number of Mice surviving/Total: 10/10
[6]; i.p. days 1 through 5, 50 mg/kg
  Number of Mice surviving/Total: 14/20
[6]; i.p. days 1 through 5, 75 mg/kg
  Number of Mice surviving/Total: 0/5
[6]; i.p. days 1 through 5, 100 mg/kg
  Number of Mice surviving/Total: 0/2
[7]; i.v. days 1 through 5, 12.5 mg/kg
  Number of Mice surviving/Total: 10/10
[7]; i.v. days 1 through 5, 25 mg/kg
  Number of Mice surviving/Total: 9/10
[7]; i.v. days 1 through 5, 37.5 mg/kg
  Number of Mice surviving/Total: 0/10
[7]; i.v. days 1 through 5, 50 mg/kg
  Number of Mice surviving/Total: 0/10
[8]; 12.5 mg/kg i.v. on days 20, 22, 24, 26 & 28
  medium survival times: 182 days
[8]; 25 mg/kg i.v. on days 20, 22, 24, 26 & 28
  survival time compared to controls: significantly prolonged compared to controls (p<0.0001)
[8]; 12.5 or 25 mg/kg i.v. on days 1, 3, 5, 7, 9, 42, 44, 46, 48 & 50 (FIG. 6a)
  survival time vs. control: significantly (p<0.05 vs. control) increased the survival time
[8]; 12.5 or 25 mg/kg i.v., FIG. 6a schedule
  efficacy compared with Taxol®: more effective than Taxol®
[8]; i.v. on days 20, 22, 24, 26 & 28, BrC16HT 12.5 or 25 mg/kg, Taxol® 12.5 mg/kg (FIG. 6b)
  survival time vs. control: significantly (p<0.05 vs. control) increased the survival time
[9]; 12.5 mg/kg i.v. on days 1, 3, 5, 7 & 9
  delaying tumor growth: approximately 79 days
[9]; 25 mg/kg i.v. on days 1, 3, 5, 7 & 9
  tumor growth suppression: suppressed tumor growth completely up to 120 days post-implantation
[9]; i.v. on days 1, 3, 5, 7 & 9, BrC16HT 12.5-25 mg/kg, Taxol® 25 mg/kg
  tumor growth vs. control: significantly (p<0.05 vs. control) inhibited the tumor growth
[10]; 6 mg/mL in Crem/EtOH (50:50), undiluted, storage 4° C., 0 h
  Percentage of BrC16HT in Sample: 93%
[10]; 6 mg/mL in Crem/EtOH (50:50), undiluted, storage 4° C., 1 Week
  Percentage of BrC16HT in Sample: 83%
[10]; 6 mg/mL in Crem/EtOH (50:50), undiluted, storage 4° C., 2 Week
  Percentage of BrC16HT in Sample: 93%
[10]; 6 mg/mL in Crem/EtOH (50:50), undiluted, storage 4° C., 3 Week
  Percentage of BrC16HT in Sample: 61%
[10]; 6 mg/mL in Crem/EtOH (50:50), undiluted, storage 4° C., 4 Week
  Percentage of BrC16HT in Sample: 58%
[10]; 6 mg/mL in Crem/EtOH (50:50), undiluted, storage 4° C., 5 Week
  Percentage of BrC16HT in Sample: 53%
[10]; 6 mg/mL in Crem/EtOH (50:50), undiluted, storage 4° C., 24 h
  Percentage of BrC16HT in Sample: 89%
[10]; 6 mg/mL in Crem/EtOH (50:50), undiluted, storage 26° C., 0 h
  Percentage of BrC16HT in Sample: 95%
[10]; 6 mg/mL in Crem/EtOH (50:50), undiluted, storage 26° C., 1 Week
  Percentage of BrC16HT in Sample: 42%
[10]; 6 mg/mL in Crem/EtOH (50:50), undiluted, storage 26° C., 2 Week
  Percentage of BrC16HT in Sample: 22%
[10]; 6 mg/mL in Crem/EtOH (50:50), undiluted, storage 26° C., 3 Week
  Percentage of BrC16HT in Sample: 14%
[10]; 6 mg/mL in Crem/EtOH (50:50), undiluted, storage 26° C., 4 Week
  Percentage of BrC16HT in Sample: 8%
[10]; 6 mg/mL in Crem/EtOH (50:50), undiluted, storage 26° C., 5 Week
  Percentage of BrC16HT in Sample: 5%
[10]; 6 mg/mL in Crem/EtOH (50:50), undiluted, storage 26° C., 24 h
  Percentage of BrC16HT in Sample: 84%
[10]; 20 mg/mL in Crem/EtOH (50:50) diluted with 5% dextrose to 6 mg/mL, storage 4° C., 0 h
  Percentage of BrC16HT in Sample: 92%
[10]; 20 mg/mL in Crem/EtOH (50:50) diluted with 5% dextrose to 6 mg/mL, storage 4° C., 1 Week
  Percentage of BrC16HT in Sample: 90%
[10]; 20 mg/mL in Crem/EtOH (50:50) diluted with 5% dextrose to 6 mg/mL, storage 4° C., 2 Week
  Percentage of BrC16HT in Sample: 88%
[10]; 20 mg/mL in Crem/EtOH (50:50) diluted with 5% dextrose to 6 mg/mL, storage 4° C., 3 Week
  Percentage of BrC16HT in Sample: 83%
[10]; 20 mg/mL in Crem/EtOH (50:50) diluted with 5% dextrose to 6 mg/mL, storage 4° C., 4 Week
  Percentage of BrC16HT in Sample: 85%
[10]; 20 mg/mL in Crem/EtOH (50:50) diluted with 5% dextrose to 6 mg/mL, storage 4° C., 5 Week
  Percentage of BrC16HT in Sample: 82%
[10]; 20 mg/mL in Crem/EtOH (50:50) diluted with 5% dextrose to 6 mg/mL, storage 4° C., 24 h
  Percentage of BrC16HT in Sample: 91%
[10]; 20 mg/mL in Crem/EtOH (50:50) diluted with 5% dextrose to 6 mg/mL, storage 26° C., 0 h
  Percentage of BrC16HT in Sample: 97%
[10]; 20 mg/mL in Crem/EtOH (50:50) diluted with 5% dextrose to 6 mg/mL, storage 26° C., 1 Week
  Percentage of BrC16HT in Sample: 93%
[10]; 20 mg/mL in Crem/EtOH (50:50) diluted with 5% dextrose to 6 mg/mL, storage 26° C., 2 Week
  Percentage of BrC16HT in Sample: 90%
[10]; 20 mg/mL in Crem/EtOH (50:50) diluted with 5% dextrose to 6 mg/mL, storage 26° C., 3 Week
  Percentage of BrC16HT in Sample: 81%
[10]; 20 mg/mL in Crem/EtOH (50:50) diluted with 5% dextrose to 6 mg/mL, storage 26° C., 4 Week
  Percentage of BrC16HT in Sample: 88%
[10]; 20 mg/mL in Crem/EtOH (50:50) diluted with 5% dextrose to 6 mg/mL, storage 26° C., 5 Week
  Percentage of BrC16HT in Sample: 87%
[10]; 20 mg/mL in Crem/EtOH (50:50) diluted with 5% dextrose to 6 mg/mL, storage 26° C., 24 h
  Percentage of BrC16HT in Sample: 99%
[11]; i.p. on days 1, 3, 5, 7 & 9
  survival time of tumor-bearing mice vs. control: significantly (p<0.05 vs. control) increased the survival time
[11]; 25 mg/kg
  % ILS: 247%
  LTS/n: 0/6
  MST Days + SEM: 117 + 8 Days
  Median survival time: 112 days
[11]; 50 mg/kg
  % ILS: 450%
  LTS/n: 0/6
  MST Days + SEM: 186 + 30 Days
  Median survival time: 171 days
[12]; BrC16HT at both 25 and 50 mg/kg, delayed i.p. schedule
  survival compared to Taxol® 25 mg/kg: significantly increased survival
[12]; delayed i.p. schedule (Table 9b)
  long-term survivors (LTS), in words: clear dose-response effect with regard to LTS
[12]; early (days 1, 3, 5, 7 & 9) and delayed (days 20, 22, 24, 26 & 28) i.p. treatment schedules
  survival of tumor-bearing mice vs. control: significantly prolonged (p<0.05 vs. control) the survival
[12]; early and delayed i.p. schedules
  survival time compared with Taxol® at equivalent doses: more effective than Taxol® in extending survival time
[12]; 25 mg/kg
  % ILS: 115%
  LTS/n (mice that survived to 300 days): 4/10
  MST Days ± SEM (n): 220 ± 13 (6) Days
  Median survival time: 221 days
[12]; 50 mg/kg
  % ILS: 80%
  LTS/n (mice that survived to 300 days): 7/10
  MST Days ± SEM (n): 183 ± 67 (3) Days
  Median survival time: 245 days
